Test results reported in patent US20050255469A1, “Human 5-ht7 receptor promoter sequence” (priority 2002, published 2005).
Entries after “also recorded” stand apart in the source; their conditions may differ.

Experiments:
5-HT7 receptor = 5-HT7 receptor (Homo sapiens, UniProt P34969); details: cited from earlier work
[1] = tested on: circadian rhythm of hamsters; details: cited from earlier work
5-HT7 receptor promoter = experiment: transient transfection luciferase reporter assay with 5-HT7 promoter constructs in HEK293T cells, barbiturate treatment; format: cell-based, human
Procedure: HEK293T cells were maintained in Dulbecco's modified Eagle's medium supplemented with 100 units/ml penicillin, 100 μg/ml streptomycin, and 10% newborn calf serum. These cells were maintained at 37° C. in a humidified atmosphere of 5% CO2.
10^5 cells/cm^2 in 24-well dishes were transfected with 150 ng promoter plasmid and 50 ng neogal (served as an internal control), using the standard calcium phosphate coprecipitation method. 24 hours after transfection, cells were washed once with PBSA and lysed in 150 μl 100 mM potassium phosphate (pH 7.8), 0.2% Triton X-100. The samples were analyzed for luciferase activity as described previously (Vanden Berghe et al., 1998). β-Galactosidase activity was measured using Galacto Star (Tropix) as substrate. For the barbiturate experiments, treatment with different barbiturates started 24 hours after transfection of the cells
According to MatInspector, a putative BARBIE (Barbiturate Inducible Element) is present in the promoter region of the 5-HT7 receptor. To investigate the possible influence of barbiturates on 5-HT7 promoter activity, we transiently transfected HEK293T cells with the different promoter constructs and treated the transfected cells with barbiturates for 24 h (FIG. 6a). […] The reduction varied from 30-50% depending on the promoter construct used and the type of barbiturate.

GAPDH = experiment: RT-PCR analysis of GAPDH mRNA levels in 1321-N1 cells; format: cell-based, human; details: different concentrations, 24 h
Procedure: (§1) 132-1N1 human astrocytoma cells were seeded into 58 cm^2 plates; 12 hours after seeding the cells were cultured with either medium alone (−) or medium containing 10 nM, 100 nM, 500 nM, 1 μM, 2 μM or 5 μM Mithramycin A (Serva). Total RNA was isolated using a RNeasy, total RNA isolation kit (Qiagen). cDNA was synthesized using AMV reverse transcriptase (Promega). The cDNA was then amplified by PCR in a total volume of 30 μl containing 10 pmol of each primer, 200 μM dNTP, Taq DNA polymerase buffer, 2,5 units of Taq and 5 μl of cDNA. PCR conditions were 94° C., 30 sec; 56° C., 1 min; 72° C., 2 min; for 35 cycles. PCR products were analyzed by electrophoresis through 6% polyacrylamide gel.

5-HT7 mRNA = experiment: RT-PCR analysis of endogenous 5-HT7 mRNA levels in 1321-N1 cells; format: cell-based; details: 1321-N1 human astrocytoma cells, different concentrations, 24 h
Procedure: as §1

5-HT7 promoter = experiment: luciferase reporter assay in NS20Y cells transiently transfected with the F1000 construct, mithramycin A treatment; format: cell-based, mouse; details: increasing concentrations, 24 h
Procedure: N2A and NS20Y cells were maintained in Dulbecco's modified Eagle's medium supplemented with 100 units/ml penicillin, 100 μg/ml streptomycin, and 10% foetal calf serum. These cells were maintained at 37° C. in a humidified atmosphere of 5% CO2. 4×10^5 cells in 6 well dishes were transfected with 500-1000 ng promoter construct and 300 ng neogal (served as internal control), using JetPEI a cationic polymer transfection reagent (Qbiogene).
Cells were treated with different concentrations of Mithramycin A for 24 hours.
The significance of binding by Sp1 to the 5-HT7 promoter for transcriptional activity was confirmed in experiments with mithramycin A, a compound that interferes with Sp1 binding to GC boxes in DNA.

[2] = time course, HEK293T cells, 2000luc+ and 1000luc+, 1.5 mM

Chain of 5-HT7 receptor (P34969 whole entry): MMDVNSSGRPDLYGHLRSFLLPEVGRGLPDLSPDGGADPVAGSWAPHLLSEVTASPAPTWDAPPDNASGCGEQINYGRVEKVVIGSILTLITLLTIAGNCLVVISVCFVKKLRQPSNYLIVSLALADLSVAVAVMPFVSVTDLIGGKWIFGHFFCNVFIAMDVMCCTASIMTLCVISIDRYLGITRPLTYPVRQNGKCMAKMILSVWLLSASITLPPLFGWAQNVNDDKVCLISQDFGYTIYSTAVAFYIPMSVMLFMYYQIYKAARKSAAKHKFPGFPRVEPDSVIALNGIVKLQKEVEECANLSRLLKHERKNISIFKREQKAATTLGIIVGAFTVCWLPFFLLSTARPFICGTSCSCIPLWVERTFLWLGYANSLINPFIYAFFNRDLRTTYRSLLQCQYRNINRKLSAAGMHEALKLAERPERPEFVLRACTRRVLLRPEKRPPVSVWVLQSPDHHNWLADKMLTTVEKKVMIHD

CCCN(CCC)C1CCc2cccc(O)c2C1 (stereo not drawn) [8-OH-DPAT]
affinity for the 5-HT7 receptor (5-HT7 receptor): high affinity
effect on circadian rhythm [1]: shifted the circadian rhythm

CCC1(CCC(C)C)C(=O)NC(=O)NC1=O [Amobarbital]
relative potency in repressing promoter activity (5-HT7 receptor promoter; HEK293T cells, 1,5 mM, 24 h, Amobarbital versus Phenobarbital): somewhat more potent
effect on 5-HT7 receptor promoter activity (5-HT7 receptor promoter; HEK293T cells, transient transfection, 1.5 mM barbiturate, 24 h): repress 5-HT7 receptor promoter activity

CCC1(c2ccccc2)C(=O)NC(=O)NC1=O [Phenobarbital]
time at which repressive effect reached a maximum (5-HT7 receptor promoter; [2]): 16 h
time at which repressive effect was already present (5-HT7 receptor promoter; [2]): ≤ 6 h

mithramycin A
levels of GAPDH (GAPDH): unaffected
5-HT7 mRNA levels (5-HT7 mRNA): significant decrease
5-HT7 promoter activity (5-HT7 promoter): dose-dependent loss of promoter activity; also recorded: inhibits 5-HT7 promoter activity
